Source: patent publication US12257224B2, “Methods of administration for highly water-soluble salts of a short acting phenylalkylamine calcium channel blocker” (Milestone Pharmaceuticals Inc., priority 2021, dated 2025)
Read-outs that look alike come from different tables or passages of the source.

Columns and labels:
subjects in sinus rhythm = test: Example 4: one vs two 70 mg doses, PR interval and safety; format: in vivo, human
Experimental: A population of 46 subjects in sinus rhythm received one 70 mg dose of compound I according to the protocol of Example 2, and after several months the dose regimen of 70 mg followed by a repeat same dose of 70 mg 10 minutes later as in the protocol of Example 3.
Two dose administration followed the same protocol as single dose administration for the initial dose, however 10 minutes after the first 70 mg dose of compound I, a second 70 mg dose of compound I was administered. For the second dose, the patients were allowed to blow their nose to remove any excess fluid build-up immediately prior to self-administration of the second 70 mg dose.

[1] = Example 7: PK analysis, serum concentration after one vs two 70 mg nasal doses; format: in vivo, human; parameters: serum concentration, Median: unit not given here; conditions: for concentration at 13 min / concentration at 15 min: human, serum, other: nasal
Experimental: The serum concentration of compound I over time from the first administration for the study arm with a single 70 mg dose administration of compound I was compared with the study arm with two 70 mg dose administrations of compound I. The second 70 mg dose of compound I was administered approximately 10 minutes after the first dose.

[2] = one and two 70 mg dose regimens
[3] = one 70 mg nasal dose, Time 10.5
[4] = one 70 mg nasal dose, Time 11.5
[5] = one 70 mg nasal dose, Time 1450
[6] = two 70 mg nasal doses, second approximately 10 minutes after first, Time 7
[7] = two 70 mg nasal doses, second approximately 10 minutes after first, Time 9
[8] = two 70 mg nasal doses, second approximately 10 minutes after first, Time 10.5
[9] = two 70 mg nasal doses, second approximately 10 minutes after first, Time 11.5

concentration at 13 min ([1]; two 70 mg nasal doses, second approximately 10 minutes after first, Time 13, read-out: serum concentration, Max): 320 ng/mL
concentration at 13 min ([1]; two 70 mg nasal doses, second approximately 10 minutes after first, Time 13, read-out: serum concentration, Mean): 115 ng/mL
concentration at 13 min ([1]; two 70 mg nasal doses, second approximately 10 minutes after first, Time 13, read-out: serum concentration, Median): 93.6 ng/mL
concentration at 13 min ([1]; two 70 mg nasal doses, second approximately 10 minutes after first, Time 13, read-out: serum concentration, Min): 22.5 ng/mL
concentration at 15 min ([1]; two 70 mg nasal doses, second approximately 10 minutes after first, Time 15, read-out: serum concentration, Max): 317 ng/mL
concentration at 15 min ([1]; two 70 mg nasal doses, second approximately 10 minutes after first, Time 15, read-out: serum concentration, Mean): 110 ng/mL
concentration at 15 min ([1]; two 70 mg nasal doses, second approximately 10 minutes after first, Time 15, read-out: serum concentration, Median): 76.9 ng/mL
concentration at 15 min ([1]; two 70 mg nasal doses, second approximately 10 minutes after first, Time 15, read-out: serum concentration, Min): 25.2 ng/mL
serum concentration, Max ([1]; one 70 mg nasal dose, Time 0): 0 ng/mL
serum concentration, Mean ([1]; one 70 mg nasal dose, Time 0): 0.00
serum concentration, Median ([1]; one 70 mg nasal dose, Time 0): 0.00
serum concentration, Min ([1]; one 70 mg nasal dose, Time 0): 0.00
serum concentration, Max ([1]; one 70 mg nasal dose, Time 0.5): 0 ng/mL
serum concentration, Mean ([1]; one 70 mg nasal dose, Time 0.5): 0.00
serum concentration, Median ([1]; one 70 mg nasal dose, Time 0.5): 0.00
serum concentration, Min ([1]; one 70 mg nasal dose, Time 0.5): 0.00
serum concentration, Mean ([1]; one 70 mg nasal dose, Time 1.5): 11.79
serum concentration, Median ([1]; one 70 mg nasal dose, Time 1.5): 5.20
serum concentration, Min ([1]; one 70 mg nasal dose, Time 1.5): 0.00
serum concentration, Max ([1]; one 70 mg nasal dose, Time 1.5, in ng/mL): 56.12
serum concentration, Mean ([1]; one 70 mg nasal dose, Time 3): 62.82
serum concentration, Median ([1]; one 70 mg nasal dose, Time 3): 32.60
serum concentration, Min ([1]; one 70 mg nasal dose, Time 3): 11.45
serum concentration, Max ([1]; one 70 mg nasal dose, Time 3, in ng/mL): 205.27
serum concentration, Mean ([1]; one 70 mg nasal dose, Time 5): 90.64
serum concentration, Median ([1]; one 70 mg nasal dose, Time 5): 67.70
serum concentration, Min ([1]; one 70 mg nasal dose, Time 5): 21.18
serum concentration, Max ([1]; one 70 mg nasal dose, Time 5, in ng/mL): 191.63
serum concentration, Mean ([1]; one 70 mg nasal dose, Time 7): 83.04
serum concentration, Median ([1]; one 70 mg nasal dose, Time 7): 74.22
serum concentration, Min ([1]; one 70 mg nasal dose, Time 7): 28.61
serum concentration, Max ([1]; one 70 mg nasal dose, Time 7, in ng/mL): 152.59
serum concentration, Mean ([1]; one 70 mg nasal dose, Time 9): 73.39
serum concentration, Median ([1]; one 70 mg nasal dose, Time 9): 69.68
serum concentration, Min ([1]; one 70 mg nasal dose, Time 9): 25.94
serum concentration, Max ([1]; one 70 mg nasal dose, Time 9, in ng/mL): 130.50
serum concentration, Mean [1, 3]: 67.95
serum concentration, Median [1, 3]: 59.91
serum concentration, Min [1, 3]: 30.24
serum concentration, Max ([1]; one 70 mg nasal dose, Time 10.5, in ng/mL): 121.45
serum concentration, Mean [1, 4]: 66.91
serum concentration, Median [1, 4]: 59.09
serum concentration, Min [1, 4]: 31.61
serum concentration, Max ([1]; one 70 mg nasal dose, Time 11.5, in ng/mL): 119.67
serum concentration, Mean ([1]; one 70 mg nasal dose, Time 13): 62.34
serum concentration, Median ([1]; one 70 mg nasal dose, Time 13): 59.07
serum concentration, Min ([1]; one 70 mg nasal dose, Time 13): 29.29
serum concentration, Max ([1]; one 70 mg nasal dose, Time 13, in ng/mL): 103.40
serum concentration, Mean ([1]; one 70 mg nasal dose, Time 15): 57.44
serum concentration, Median ([1]; one 70 mg nasal dose, Time 15): 52.11
serum concentration, Min ([1]; one 70 mg nasal dose, Time 15): 26.98
serum concentration, Max ([1]; one 70 mg nasal dose, Time 15, in ng/mL): 111.44
serum concentration, Mean ([1]; one 70 mg nasal dose, Time 17): 50.32
serum concentration, Median ([1]; one 70 mg nasal dose, Time 17): 41.80
serum concentration, Min ([1]; one 70 mg nasal dose, Time 17): 26.92
serum concentration, Max ([1]; one 70 mg nasal dose, Time 17, in ng/mL): 90.05
serum concentration, Mean ([1]; one 70 mg nasal dose, Time 20): 49.43
serum concentration, Median ([1]; one 70 mg nasal dose, Time 20): 46.51
serum concentration, Min ([1]; one 70 mg nasal dose, Time 20): 22.74
serum concentration, Max ([1]; one 70 mg nasal dose, Time 20, in ng/mL): 80.55
serum concentration, Mean ([1]; one 70 mg nasal dose, Time 25): 41.86
serum concentration, Median ([1]; one 70 mg nasal dose, Time 25): 42.30
serum concentration, Min ([1]; one 70 mg nasal dose, Time 25): 19.26
serum concentration, Max ([1]; one 70 mg nasal dose, Time 25, in ng/mL): 66.12
serum concentration, Mean ([1]; one 70 mg nasal dose, Time 35): 33.35
serum concentration, Median ([1]; one 70 mg nasal dose, Time 35): 36.90
serum concentration, Min ([1]; one 70 mg nasal dose, Time 35): 15.09
serum concentration, Max ([1]; one 70 mg nasal dose, Time 35, in ng/mL): 51.52
serum concentration, Mean ([1]; one 70 mg nasal dose, Time 60): 20.41
serum concentration, Median ([1]; one 70 mg nasal dose, Time 60): 22.06
serum concentration, Min ([1]; one 70 mg nasal dose, Time 60): 8.89
serum concentration, Max ([1]; one 70 mg nasal dose, Time 60, in ng/mL): 31.10
serum concentration, Mean ([1]; one 70 mg nasal dose, Time 100): 13.91
serum concentration, Median ([1]; one 70 mg nasal dose, Time 100): 12.75
serum concentration, Min ([1]; one 70 mg nasal dose, Time 100): 6.20
serum concentration, Max ([1]; one 70 mg nasal dose, Time 100, in ng/mL): 23.24
serum concentration, Mean ([1]; one 70 mg nasal dose, Time 240): 5.90
serum concentration, Median ([1]; one 70 mg nasal dose, Time 240): 5.91
serum concentration, Min ([1]; one 70 mg nasal dose, Time 240): 1.48
serum concentration, Max ([1]; one 70 mg nasal dose, Time 240, in ng/mL): 11.01
serum concentration, Max ([1]; one 70 mg nasal dose, Time 370): 6.08 ng/mL
serum concentration, Mean ([1]; one 70 mg nasal dose, Time 370): 2.49
serum concentration, Median ([1]; one 70 mg nasal dose, Time 370): 2.51
serum concentration, Min ([1]; one 70 mg nasal dose, Time 370): 0.00
serum concentration, Max ([1]; one 70 mg nasal dose, Time 730): 3.17 ng/mL
serum concentration, Mean ([1]; one 70 mg nasal dose, Time 730): 0.76
serum concentration, Median ([1]; one 70 mg nasal dose, Time 730): 0.00
serum concentration, Min ([1]; one 70 mg nasal dose, Time 730): 0.00
serum concentration, Max [1, 5]: 1.2 ng/mL
serum concentration, Mean [1, 5]: 0.10
serum concentration, Median [1, 5]: 0.00
serum concentration, Min [1, 5]: 0.00
serum concentration, Mean [1, 6]: 85.77
serum concentration, Median [1, 6]: 91.42
serum concentration, Min [1, 6]: 17.16
serum concentration, Max ([1]; two 70 mg nasal doses, second approximately 10 minutes after first, Time 7, in ng/mL): 180.76
serum concentration, Mean [1, 7]: 73.20
serum concentration, Median [1, 7]: 77.41
serum concentration, Min [1, 7]: 15.37
serum concentration, Max ([1]; two 70 mg nasal doses, second approximately 10 minutes after first, Time 9, in ng/mL): 144.91
serum concentration, Mean [1, 8]: 65.97
serum concentration, Median [1, 8]: 65.18
serum concentration, Min [1, 8]: 14.49
serum concentration, Max ([1]; two 70 mg nasal doses, second approximately 10 minutes after first, Time 10.5, in ng/mL): 143.87
serum concentration, Mean [1, 9]: 96.77
serum concentration, Median [1, 9]: 102.11
serum concentration, Min [1, 9]: 15.52
serum concentration, Max ([1]; two 70 mg nasal doses, second approximately 10 minutes after first, Time 11.5, in ng/mL): 215.35
SMILES: COC(=O)c1cccc(CCN(C)CCCC(C#N)(c2ccc(OC)c(OC)c2)C(C)C)c1 (centres unmarked) [compound I, methyl 3-(2-((4-cyano-4-(3,4-dimethoxyphenyl)-5-methylhexyl)(methyl)amino)ethyl)benzoate]
AV block (subjects in sinus rhythm; [2]): No new AV block was observed
lowest systolic blood pressure seen (subjects in sinus rhythm; [2]): ≥ 99 mmHg
severe adverse reactions (subjects in sinus rhythm; [2]): No severe adverse reactions were seen
increase in PR interval (subjects in sinus rhythm; repeat 70 mg, second dose 10 minutes after the initial dose): 21 ms
maximum percentage increase in PR interval (subjects in sinus rhythm; repeat dose of 70 mg): 14%
duration of PR increase (subjects in sinus rhythm; repeat dose of 70 mg vs single dose of 70 mg): more prolonged
increase in PR interval (subjects in sinus rhythm; single 70 mg administration): 15 ms
maximum percentage increase in PR interval (subjects in sinus rhythm; single 70 mg administration): 9%
heart rate and systolic blood pressure (subjects in sinus rhythm; single 70 mg dose and two 70 mg doses separated by 10 minutes): remain in normal ranges
safety and tolerability (subjects in sinus rhythm; two dose regimen of 70 mg compared to single dose regimen): safe and was well tolerated
serum concentration, two 70 mg doses vs single 70 mg dose ([1]; second dose approximately 10 minutes after the first): raised the serum concentration of compound I above that observed with a single 70 mg dose
